The target in one test is D(3) dopamine receptor (Homo sapiens, UniProt P35462). Kind of test: Binding affinity evaluated for the displacement of [3H]-spiperone against human dopamine receptor D3.
For a further test, the target named is D(2) dopamine receptor (Bos taurus, UniProt P20288). Kind of test: Binding affinity was evaluated for the displacement of [3H]spiperone against bovine Dopamine receptor D2.
For a further test, the target named is T1, D(4) dopamine receptor (Homo sapiens, UniProt P21917).
T1 sequence (P21917 whole entry): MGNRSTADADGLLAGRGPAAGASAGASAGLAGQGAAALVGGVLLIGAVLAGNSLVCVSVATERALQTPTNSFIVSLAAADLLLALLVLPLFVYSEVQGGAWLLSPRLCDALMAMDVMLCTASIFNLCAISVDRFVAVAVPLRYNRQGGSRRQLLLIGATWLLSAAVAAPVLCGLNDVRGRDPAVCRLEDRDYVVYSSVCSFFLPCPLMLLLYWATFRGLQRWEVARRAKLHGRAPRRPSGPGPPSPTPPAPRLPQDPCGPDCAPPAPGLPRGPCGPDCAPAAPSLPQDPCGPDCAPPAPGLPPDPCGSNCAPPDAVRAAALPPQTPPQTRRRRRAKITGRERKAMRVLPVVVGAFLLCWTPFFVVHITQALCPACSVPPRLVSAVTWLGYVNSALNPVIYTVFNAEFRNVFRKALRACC
Description: Binding affinity evaluated for the displacement of [3H]spiperone against human dopamine receptor D4.

The next test has as its target D(1A) dopamine receptor (Bos taurus, UniProt Q95136). Description: Binding affinity was evaluated for the displacement of [3H]-SCH- 23390 against bovine Dopamine receptor D1.

The values below come from ChEMBL document CHEMBL1131703, “Azaindole derivatives with high affinity for the dopamine D4 receptor: synthesis, ligand binding studies and comparison of molecular electrostatic potential maps” (Bioorg Med Chem Lett, 1999).

Chain of D(3) dopamine receptor (P35462 whole entry): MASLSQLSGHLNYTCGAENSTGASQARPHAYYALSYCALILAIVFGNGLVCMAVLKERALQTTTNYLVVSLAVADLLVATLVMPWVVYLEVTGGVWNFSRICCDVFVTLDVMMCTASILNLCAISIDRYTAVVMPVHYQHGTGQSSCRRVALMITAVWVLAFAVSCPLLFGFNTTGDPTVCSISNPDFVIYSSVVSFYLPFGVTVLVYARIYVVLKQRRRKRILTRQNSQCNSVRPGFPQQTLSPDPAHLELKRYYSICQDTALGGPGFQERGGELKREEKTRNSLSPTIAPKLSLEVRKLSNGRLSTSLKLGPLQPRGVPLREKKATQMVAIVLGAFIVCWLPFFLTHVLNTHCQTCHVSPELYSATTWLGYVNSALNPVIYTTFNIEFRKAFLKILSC
Chain of D(1A) dopamine receptor (Q95136 whole entry): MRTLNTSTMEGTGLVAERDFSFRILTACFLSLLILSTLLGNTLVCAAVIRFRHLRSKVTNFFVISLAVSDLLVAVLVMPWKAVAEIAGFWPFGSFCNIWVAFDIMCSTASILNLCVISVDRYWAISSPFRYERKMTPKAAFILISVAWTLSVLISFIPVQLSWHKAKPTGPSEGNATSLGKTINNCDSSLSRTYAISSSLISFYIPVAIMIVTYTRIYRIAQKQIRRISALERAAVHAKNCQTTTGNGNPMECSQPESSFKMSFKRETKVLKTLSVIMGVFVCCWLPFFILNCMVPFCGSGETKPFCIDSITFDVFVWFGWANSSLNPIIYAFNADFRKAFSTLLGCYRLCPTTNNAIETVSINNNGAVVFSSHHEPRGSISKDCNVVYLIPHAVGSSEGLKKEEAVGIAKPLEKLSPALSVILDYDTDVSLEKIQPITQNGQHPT
Chain of D(2) dopamine receptor (P20288 whole entry): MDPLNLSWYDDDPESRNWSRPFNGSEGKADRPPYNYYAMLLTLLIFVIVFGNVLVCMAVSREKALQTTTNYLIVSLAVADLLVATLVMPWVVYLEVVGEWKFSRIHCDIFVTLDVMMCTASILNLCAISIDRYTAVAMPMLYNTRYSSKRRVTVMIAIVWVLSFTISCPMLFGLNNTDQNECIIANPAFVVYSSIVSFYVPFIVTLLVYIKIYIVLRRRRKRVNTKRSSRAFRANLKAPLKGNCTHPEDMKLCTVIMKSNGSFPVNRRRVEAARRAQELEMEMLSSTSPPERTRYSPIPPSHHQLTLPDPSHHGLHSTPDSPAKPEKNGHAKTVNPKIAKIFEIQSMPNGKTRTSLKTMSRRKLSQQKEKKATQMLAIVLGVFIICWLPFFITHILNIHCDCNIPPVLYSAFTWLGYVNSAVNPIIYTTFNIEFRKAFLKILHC

On to `O=C(c1cnn2ccccc12)N1CCN(c2ccc(Cl)cc2)CC1`, for which the Ki was 61 µM on D(3) dopamine receptor, 30 µM at D(2) dopamine receptor, 23 µM at D(4) dopamine receptor and more than 100 µM at D(1A) dopamine receptor.

Regarding `Ic1ccc(N2CCN(Cc3cnn4ccccc34)CC2)cc1`, the Ki on D(3) dopamine receptor was 6.7 µM; at D(2) dopamine receptor, 1.4 µM; on D(4) dopamine receptor, 0.003 µM; on D(1A) dopamine receptor it was 17 µM.
